Reference: patent US6974804B2, “Esters” (Unilever Home & Personal Care USA, division of Conopco, Inc., priority 2000, dated 2005)

Experiments:
[1] = Visual assessment score (clarity of gel in 1 cm cuvette); type: physicochemical; details: gel in 60:40 w/w Silkflo 364:DC245; score scale −12 to 8
From the text: A gel contained within a 1 cm thick cuvette was placed directly on to a sheet of white paper on which 21 sets of figures where printed in black. The size and thickness of the figures varied systematically and were numbered from −12 (the largest, thickest set) through 0 to 8 (the smallest thinnest set) The score given to each gel was the highest numbered set which could be read clearly through the gel, the higher the number, the higher the clarity.

[2] = Gelling of water-immiscible cosmetic liquids in 96 well glass micro-titre plate; type: physicochemical; parameters: key: gel; g4: gel after overnight (18 hrs) storage at 4° C.; g22: gel after overnight (18 hrs) storage at 22° C.; sg: soft gel; sg22: soft gel after overnight (18 hrs) storage at 22° C.; solution; *: the test at 4° C. was not carried out; details: for gelling of ISA: 150° C. 2.5 hours, cooled to ambient
Method: In this Example, various samples of esterified cellobiose prepared as in Example 1 or 2 above, were used to gel water-immiscible cosmetic liquids, in accordance with the procedure given below, in which a large number of gels can be prepared simultaneously.
The samples were tested in a 96 well (8×12 rows) glass micro-titre plate. […] About 0.01 or 0.02 g of each esterified cellobiose material was placed into 8 consecutive wells in a single row, so that each well contained approximately 5% or 10% of the cellobiose ester. The balance in each well comprised the cosmetic liquid by addition of approximately 0.2 g of the respective liquid to each cell. A glass lid was placed on top of the plate. The plate was carefully placed in a thermostatically controlled fan-assisted oven set at 150° C. for 2.5 hours. The plate was removed from the oven and allowed to cool naturally to ambient laboratory temperature. The contents of the wells were assessed at the end of the cooling period, by visual inspection and by poking the contents of each well with a micro-spatula. The plates were stored at […] for 18 hours and the contents inspected, and further stored for 18 hours at 4° C. and inspected for a third time. The results obtained in the tests are summarised in Table 5 below, in which the legend is as follows: […]

[3] = 5% cellobiose ester in Fluid AP
[4] = 5% cellobiose ester in Mineral oil
[5] = 5% cellobiose ester in Polydecene
[6] = 10% cellobiose ester in Fluid AP
[7] = 10% cellobiose ester in Mineral oil
[8] = 10% cellobiose ester in Polydecene

Visual [1]	gelling of IPM ([2]; 5% cellobiose ester in IPM)	gelling of IPM ([2]; 10% cellobiose ester in IPM)	Molecule	gelling of DC556 ([2]; 5% cellobiose ester in DC556)	gelling of Fluid AP [2, 3]	gelling of ISA ([2]; 5% cellobiose ester in ISA)	gelling of Mineral oil [2, 4]	gelling of Polydecene [2, 5]	gelling of DC556 ([2]; 10% cellobiose ester in DC556)	gelling of Fluid AP [2, 6]	gelling of ISA ([2]; 10% cellobiose ester in ISA)	gelling of Mineral oil [2, 7]	gelling of Polydecene [2, 8]
3			cellobiose heptanonanoate monocyclohexanoate [Ex 1.12]										
6			cellobiose heptanonanoate monocyclohexanoate [Ex 1.13]										
5			cellobiose heptanonanoate monocyclohexanoate [Ex 3.2]										
			CCCCCCCCC(=O)OCC1OC(OC2C(COC(=O)CCCCCCCC)OC(OC(=O)CCCCCC)C(OC(=O)CCCCCCCC)C2OC(=O)CCCCCCCC)C(OC(=O)CCCCCCCC)C(OC(=O)CCCCCCCC)C1OC(=O)CCCCCCCC (mixture of isomers) [Ex 1.22]	g22	gel	sg22	sol	gel	g22	gel	g22	g22	gel
			CCCCCCCCCC(=O)OCC1OC(OC2C(COC(=O)CCCCCCCCC)OC(OC(C)=O)C(OC(=O)CCCCCCCCC)C2OC(=O)CCCCCCCCC)C(OC(=O)CCCCCCCCC)C(OC(=O)CCCCCCCCC)C1OC(=O)CCCCCCCCC (mixture of isomers) [Ex 2.3]	gel	gel	gel	gel	gel	gel	gel	gel	gel	gel
			CCCCCCCCCC(=O)OCC1OC(OC2C(COC(=O)CCCCCCCCC)OC(OC(C)=O)C(OC(=O)CCCCCCCCC)C2OC(=O)CCCCCCCCC)C(OC(=O)CCCCCCCCC)C(OC(=O)CCCCCCCCC)C1OC(=O)CCCCCCCCC (mixture of isomers) [Ex 2.5]	gel	gel	gel	gel	gel					
			CCCCCCCCCC(=O)OCC1OC(OC2C(COC(=O)CCCCCCCCC)OC(OC(=O)c3ccccc3)C(OC(=O)CCCCCCCCC)C2OC(=O)CCCCCCCCC)C(OC(=O)CCCCCCCCC)C(OC(=O)CCCCCCCCC)C1OC(=O)CCCCCCCCC (mixture of isomers) [Ex 2.2]	gel	gel	gel	gel	gel	gel	gel	gel	gel	gel
3			cellobiose heptanonanoate monocyclohexanoate [Ex 3.1]										
			CCCCCCCCCCCCCCCC(=O)OC1OC(COC(=O)CCCCCCCCC)C(OC2OC(COC(=O)CCCCCCCCC)C(OC(=O)CCCCCCCCC)C(OC(=O)CCCCCCCCC)C2OC(=O)CCCCCCCCC)C(OC(=O)CCCCCCCCC)C1OC(=O)CCCCCCCCC (mixture of isomers) [Ex 2.12]	gel	gel	g22	gel	gel	gel	gel	gel	gel	gel
			CCCCCCCCC(=O)OCC1OC(OC2C(COC(=O)CCCCCCCC)OC(OC(=O)CCCCC)C(OC(=O)CCCCCCCC)C2OC(=O)CCCCCCCC)C(OC(=O)CCCCCCCC)C(OC(=O)CCCCCCCC)C1OC(=O)CCCCCCCC (mixture of isomers) [Ex 1.21]	g22	gel	sg22	g22	gel	gel	gel	g22	g22	gel
			CCCCCCCCCCCCCCCC(=O)OC1OC(COC(=O)CCCCCCCCC)C(OC2OC(COC(=O)CCCCCCCCC)C(OC(=O)CCCCCCCCC)C(OC(=O)CCCCCCCCC)C2OC(=O)CCCCCCCCC)C(OC(=O)CCCCCCCCC)C1OC(=O)CCCCCCCCC (mixture of isomers) [Ex 2.13]	gel	gel	gel	gel	gel	gel	gel	gel	gel	gel
			CCCCCCCCCC(=O)OCC1OC(OC2C(COC(=O)CCCCCCCCC)OC(OC(=O)CCCCC)C(OC(=O)CCCCCCCCC)C2OC(=O)CCCCCCCCC)C(OC(=O)CCCCCCCCC)C(OC(=O)CCCCCCCCC)C1OC(=O)CCCCCCCCC (mixture of isomers) [Ex 2.11]	gel	gel	gel	gel	gel	gel	gel	gel	gel	gel
			CCCCCCCCC(=O)OCC1OC(OC2C(COC(=O)CCCCCCCC)OC(OC(=O)c3ccc(-c4ccccc4)cc3)C(OC(=O)CCCCCCCC)C2OC(=O)CCCCCCCC)C(OC(=O)CCCCCCCC)C(OC(=O)CCCCCCCC)C1OC(=O)CCCCCCCC (mixture of isomers) [Ex 1.15]	gel	gel	gel	gel	gel	gel	gel	gel	gel	gel
3	sol	g4	cellobiose heptanonanoate monocyclohexanoate [Ex 1.14]	gel	gel	g22	gel	gel	gel	gel	gel	gel	gel
			CCCCCCCCC(=O)OCC1OC(OC2C(COC(=O)CCCCCCCC)OC(OC(=O)CC)C(OC(=O)CCCCCCCC)C2OC(=O)CCCCCCCC)C(OC(=O)CCCCCCCC)C(OC(=O)CCCCCCCC)C1OC(=O)CCCCCCCC (mixture of isomers) [Ex 1.16]	gel	gel	gel	gel	gel	gel	gel	gel	gel	gel
